Values of other authors, collected in patent US20240415880A1, “Treatment of Breast and Other Cancers Using Zinc Chloride Instead of Radiation” (priority 2023, published 2024).

Columns and labels:
[1] = test system: locally advanced breast cancer tumors; conditions: case presentations
[2] = test system: cancers of the mouth, accessory nasal sinuses, larynx, parotid and other salivary glands, anal region, vulva and accessible sarcomas
[3] = test system: advanced melanomas; conditions: 103 consecutive advanced melanomas; zinc chloride combined with surgery

[Cl-].[Cl-].[Zn+2] [zinc chloride, Zinc chloride]
healing of locally advanced breast cancer tumors [1]: remarkable healing
treatment outcome of cancers [2]: successfully treated
improvement in cure rates over conventional surgery of melanomas [3]: significant and statistical (p=0.003) improvement
